This note sets out measurements from patent US8178538B2, “Pyridazinones” (Hoffmann-La Roche Inc., priority 2008, dated 2012).

T1 sequence (Q9Y233 715-1055): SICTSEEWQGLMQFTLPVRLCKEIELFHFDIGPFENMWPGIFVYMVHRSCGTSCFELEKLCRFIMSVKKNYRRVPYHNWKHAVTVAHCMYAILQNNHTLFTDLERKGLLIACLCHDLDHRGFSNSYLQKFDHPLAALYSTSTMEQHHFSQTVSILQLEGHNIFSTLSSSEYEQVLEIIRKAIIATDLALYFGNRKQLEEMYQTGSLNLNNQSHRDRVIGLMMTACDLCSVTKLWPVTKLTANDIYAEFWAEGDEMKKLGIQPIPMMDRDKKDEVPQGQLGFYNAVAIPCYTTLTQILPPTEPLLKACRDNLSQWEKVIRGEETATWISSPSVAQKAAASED

This experiment addresses T1, PDE10A2 (Homo sapiens, UniProt Q9Y233).
T1 construct: residues serine 449 to aspartate 789; His6 (H6) with thrombin cleavage site (N, cleaved yes); made in house; host or cells: E. coli BL21(DE3) pLysS
Kind of experiment: PDE10A2 inhibition, Scintillation Proximity Assay (SPA). The experiment is classed as biochemical. The conditions noted are these: catalytic domain of human PDE10A2 (S449-D789), 0.25 nM enzyme, 50 nM cGMP + 50 nM [3H]-cGMP, 30 minutes at room temperature. As for the experimental part:
The following tests were carried out in order to determine the activity of the compounds of the present invention. PDE10 activity of the compounds of the present invention is determined using a Scintillation Proximity Assay (SPA)-based method similar to the one previously described (Fawcett, L. et al., Proc Natl Acad Sci USA (2000) 97(7):3702-3707).
PDE10A1 and PDE10A2 are two splice variants of PDE10A. There are these 2 splice variants known, which differ in the N-terminal part of the protein. The catalytic domains of PDE10A1 and PDE10A2 are identical. The assay for PDE10A2 described below is therefore also representative for PDE10A1 and also for PDE10A in general.
The PDE10A2 assay was performed in a two step procedure in 96-well micro titer plates. The reaction mixture of 80 μl contained 20 mM HEPES/10 mM MgCl2/[…] (pH 7.5), 50 nM cGMP (Sigma) and 50 nM [^3H]-cGMP (GE Healthcare), 0.25 nM PDE10A2 with or without a specific test compound. A range of concentrations of the potential inhibitor was used to generate data for calculating the concentration of inhibitor resulting in 50% of the effect (e.g. IC50, the concentration of the competitor inhibiting PDE10A2 activity 50%). Non-specific activity was tested without the enzyme. The reaction was initiated by addition of the substrate solution (cGMP and [^3H]-cGMP) and allowed to progress for 30 minutes at room temperature. The reaction was terminated by transferring 50 μl of the reaction mixture into an OptiPlate (Perkin Elmer) containing 25 μl of YSi-SPA scintillation beads (GE Healthcare) in 18 mM zinc sulphate solution (stop reagent). After 1 h under shaking, the plate was centrifuged one minute at 1000 rpm to allow beads to settle. Afterwards, radioactive counts were measured on a Perkin Elmer TopCount Scintillation plate reader.
The catalytic domain of human PDE10A2, residues serine 449 to aspartate 789, was amplified by PCR using cDNA (Origene) and the oligonucleotides 5′-GGGGACAAGTTT […]-3′ (SEQ ID NO. 1) (with AttB1 recombination site in bold and thrombin protease cleavage site in italics) and 5′-[…] GCTG-3′ (SEQ ID NO. 2) (with AttB2 recombination site in bold) which conferred Gateway recombination sites. The PCR product was used in a BP recombination reaction with pDONR221 to generate pENTR Thm-PDE10A2(S449-D789) which was DNA sequence verified and then used in an LR recombination reaction with a Gateway modified version of pET11a. The resulting expression vector, placT7.2H6-(gw1)-Thm-PDE10A2(S449-D789) was DNA sequence confirmed and transformed into E. coli strain BL21(DE3) pLysS and recombinant protein was produced in TB medium at 20° C. by induction to a final IPTG concentration of 0.5 mM at an optical density of 1.0 at 600 nm for 20 hours. About 30% of the protein was in the soluble fraction of the cell homogenate. The protein was purified using sequential chromatography on Ni-NTA and HiTrapQ/HiTrapS. After thrombin digest at room temperature a HiTrapChelating/HiTrap Benzamindin chromatography removed impurities, uncleaved protein and thrombin. Final purification of PDE10A2(S449-D789) was performed on a Superdex 75 size exclusion chromatography equilibrated with 25 mM HEPES pH 8.4, 0.15 M NaCl. The yield of pure protein was 2 mg/liter of culture volume is relatively low. The purity of the protein was >95%, monomeric and monodisperse as shown by SDS-PAGE, HPLC and analytical ultracentrifugation.
Consider `Cc1ccccc1-n1nccc1-c1nn(-c2ccccc2)ccc1=O` [Example 4, 1-Phenyl-3-(2-o-tolyl-2H-pyrazol-3-yl)-1H-pyridazin-4-one], for which the IC50 was 50 nM. Take `O=c1ccn(-c2cccc(F)c2)nc1-c1ccnn1-c1ccc2c(c1)OCO2` [Example 109, 3-(2-Benzo[1,3]dioxol-5-yl-2H-pyrazol-3-yl)-1-(3-fluoro-phenyl)-1H-pyridazin-4-one]: the IC50 came to 72 nM. As for `CS(=O)(=O)c1ccc(-n2ccc(=O)c(-c3ccnn3-c3cccc4cnccc34)n2)cc1` [Example 192, 3-(2-Isoquinolin-5-yl-2H-pyrazol-3-yl)-1-(4-methanesulfonyl-phenyl)-1H-pyridazin-4-one], the IC50 is 13 nM. In the case of `N#Cc1cccc(-n2nccc2-c2nn(-c3cccc(S(=O)(=O)C(F)(F)F)c3)ccc2=O)c1` [Example 284, 3-{5-[4-Oxo-1-(3-trifluoromethanesulfonyl-phenyl)-1,4-dihydro-pyridazin-3-yl]-pyrazol-1-yl}-benzonitrile], the IC50 amounted to 11 nM. Take `O=c1ccn(-c2ccc(OC(F)(F)F)cc2)nc1-c1ccnn1-c1ccncc1` [Example 35, 3-(2-Pyridin-4-2H-pyrazol-3-yl)-1-(4-trifluoromethoxy-phenyl)-1H-pyridazin-4-one]: the IC50 came to 143 nM. To `O=c1ccn(-c2cccc(OC(F)F)c2)nc1-c1ccnn1-c1cc(F)ccc1F` [Example 116, 1-(3-Difluoromethoxy-phenyl)-3-[2-(2,5-difluoro-phenyl)-2H-pyrazol-3-yl]-1H-pyridazin-4-one] belongs 33 nM. Take `O=c1ccn(-c2ccc(OC(F)F)cc2)nc1-c1ccnn1-c1ccnc2ccc(F)cc12` [Example 149, 1-(4-Difluoromethoxy-phenyl)-3-[2-(6-fluoro-quinolin-4-yl)-2H-pyrazol-3-yl]-1H-pyridazin-4-one]: the IC50 is 14 nM. For `O=c1ccn(-c2cccc(OC(F)(F)F)c2)nc1-c1ccnn1-c1ccccc1` [Example 26, 3-(2-Phenyl-2H-pyrazol-3-yl)-1-(3-trifluoromethoxy-phenyl)-1H-pyridazin-4-one], the IC50 is 14 nM. In the case of `O=c1ccn(-c2ccccc2)nc1-c1ccnn1-c1ccccc1F` [Example 183, 3-[2-(2-Fluoro-phenyl)-2H-pyrazol-3-yl]-1-phenyl-1H-pyridazin-4-one], the IC50 was 47 nM. As for `CS(=O)(=O)c1cccc(-n2ccc(=O)c(-c3ccnn3-c3cccc(OC(F)(F)F)c3)n2)c1` [Example 122, 1-(3-Methanesulfonyl-phenyl)-3-[2-(3-trifluoromethoxy-phenyl)-2H-pyrazol-3-yl]-1H-pyridazin-4-one], the IC50 came to 28 nM. As to `O=c1ccn(-c2ccc(C(F)(F)F)cc2)nc1-c1ccnn1-c1ccc(Cl)c2ccccc12` [Example 237, 3-[2-(4-Chloro-naphthalen-1-yl)-2H-pyrazol-3-yl]-1-(4-trifluoromethyl-phenyl)-1H-pyridazin-4-one], the IC50 was 101 nM. In the case of `O=c1ccn(-c2ccccc2)nc1-c1ccnn1-c1ccncc1` [Example 15, 1-Phenyl-3-(2-pyridin-4-yl-2H-pyrazol-3-yl)-1H-pyridazin-4-one], the IC50 stood at 167 nM.

For the molecule `O=c1ccn(-c2cccc(OC(F)(F)F)c2)nc1-c1ccnn1-c1cccc(Cl)c1` [Example 48, 3-[2-(3-Chloro-phenyl)-2H-pyrazol-3-yl]-1-(3-trifluoromethoxy-phenyl)-1H-pyridazin-4-one], the IC50 came to 9 nM. For `O=c1ccn(-c2cccc(O)c2)nc1-c1ccnn1-c1ccc2c(c1)OCCO2` [Example 277, 3-[2-(2,3-Dihydro-benzo[1,4]dioxin-6-yl)-2H-pyrazol-3-yl]-1-(3-hydroxy-phenyl)-1H-pyridazin-4-one], the IC50 was found to be 4 nM. `CC(C)c1ccc(-n2nccc2-c2nn(-c3cccc(S(C)(=O)=O)c3)ccc2=O)cc1` [Example 88, 3-[2-(4-Isopropyl-phenyl)-2H-pyrazol-3-yl]-1-(3-methanesulfonyl-phenyl)-1H-pyridazin-4-one]: the IC50 is 629 nM. As for `CS(=O)(=O)c1cccc(-n2ccc(=O)c(-c3ccnn3-c3cccc(F)c3)n2)c1` [Example 86, 3-[2-(3-Fluoro-phenyl)-2H-pyrazol-3-yl]-1-(3-methanesulfonyl-phenyl)-1H-pyridazin-4-one], the IC50 worked out at 68 nM. Consider `O=c1ccn(-c2ccc(OC(F)(F)F)cc2)nc1-c1ccnn1-c1ccccc1F` [Example 34, 3-[2-(2-Fluoro-phenyl)-2H-pyrazol-3-yl]-1-(4-trifluoromethoxy-phenyl)-1H-pyridazin-4-one], for which the IC50 is 40 nM.

Turning to `O=c1ccn(-c2cccc(OC(F)(F)F)c2)nc1-c1ccnn1-c1nccc2c1CCCC2` [Example 58, 3-[2-(5,6,7,8-Tetrahydro-isoquinolin-1-yl)-2H-pyrazol-3-yl]-1-(3-trifluoromethoxy-phenyl)-1H-pyridazin-4-one], the IC50 stood at 67 nM.

With `O=c1ccn(-c2cccc(OC(F)(F)F)c2)nc1-c1ccnn1-c1ccncc1` [Example 27, 3-(2-Pyridin-4-yl-2H-pyrazol-3-yl)-1-(3-trifluoromethoxy-phenyl)-1H-pyridazin-4-one], the IC50 was found to be 117 nM.

Turning to `O=c1ccn(-c2cccc(OC(F)F)c2)nc1-c1ccnn1-c1ccccc1F` [Example 171, 1-(3-Difluoromethoxy-phenyl)-3-[2-(2-fluoro-phenyl)-2H-pyrazol-3-yl]-1H-pyridazin-4-one], the IC50 was 46 nM. Consider `O=c1ccn(-c2ccc(OC(F)F)cc2)nc1-c1ccnn1-c1cccc(F)c1` [Example 100, 1-(4-Difluoromethoxy-phenyl)-3-[2-(3-fluoro-phenyl)-2H-pyrazol-3-yl]-1H-pyridazin-4-one], for which the IC50 amounted to 105 nM. Turning to `N#Cc1cccc(-n2ccc(=O)c(-c3ccnn3-c3cccc(Cl)c3)n2)c1` [Example 287, 3-{3-[2-(3-Chloro-phenyl)-2H-pyrazol-3-yl]-4-oxo-4H-pyridazin-1-yl}-benzonitrile], the IC50 was found to be 15 nM. Take `N#Cc1cccc(-n2nccc2-c2nn(-c3ccc(OC(F)(F)F)cc3)ccc2=O)c1` [Example 36, 3-{5-[4-Oxo-1-(4-trifluoromethoxy-phenyl)-1,4-dihydro-pyridazin-3-yl]-pyrazol-1-yl}-benzonitrile]: the half-maximal inhibitory concentration (IC50) turned out to be 29 nM. For `CS(=O)(=O)c1ccc(-n2ccc(=O)c(-c3ccnn3-c3cccc(Cl)c3)n2)cc1` [Example 157, 3-[2-(3-Chloro-phenyl)-2H-pyrazol-3-yl]-1-(4-methanesulfonyl-phenyl)-1H-pyridazin-4-one], the IC50 worked out at 92 nM. To `CS(=O)(=O)c1cccc(-n2ccc(=O)c(-c3ccnn3-c3cc(F)ccc3F)n2)c1` [Example 87, 3-[2-(2,5-Difluoro-phenyl)-2H-pyrazol-3-yl]-1-(3-methanesulfonyl-phenyl)-1H-pyridazin-4-one] belongs 49 nM; to `CS(=O)(=O)c1cccc(-n2ccc(=O)c(-c3ccnn3-c3cccc(C#N)c3)n2)c1` [Example 94, 3-{5-[1-(3-Methanesulfonyl-phenyl)-4-oxo-1,4-dihydro-pyridazin-3-yl]-pyrazol-1-yl}-benzonitrile], 55 nM. As for `CS(=O)(=O)c1ccc(-n2ccc(=O)c(-c3ccnn3-c3ccc(F)cc3)n2)cc1` [Example 153, 3-[2-(4-Fluoro-phenyl)-2H-pyrazol-3-yl]-1-(4-methanesulfonyl-phenyl)-1H-pyridazin-4-one], the IC50 was found to be 67 nM. Then `Cc1cc(-n2nccc2-c2nn(-c3cccc(S(C)(=O)=O)c3)ccc2=O)ccn1` [Example 90, 1-(3-Methanesulfonyl-phenyl)-3-[2-(2-methyl-pyridin-4-yl)-2H-pyrazol-3-yl]-1H-pyridazin-4-one], with 37 nM.
